Source: patent publication US20260028365A1 (BIOGEN MA INC., priority 2022, published 2026)
Where two headings read alike, the source gives them in different places.

Legend:
JH2 domain of human Tyk2 = JH2 domain of human Tyk2 (Homo sapiens (Human), UniProt P29597); assay: JH2 Biochemical Assay (TR-FRET probe displacement); type: binding
Tyk2 = Tyk2 (Homo sapiens (Human), UniProt P29597); assay: pSTAT4 Cell Assay (MSD, NK92 cells); type: cell-based
[1] = JH2 domain of human Tyk2, TR-FRET probe displacement
[2] = TR-FRET probe displacement, JH2 domain of human Tyk2
[3] = TR-FRET probe displacement, JH2 domain

Tyk2, sequence (P29597 whole entry, the tested form may be a part): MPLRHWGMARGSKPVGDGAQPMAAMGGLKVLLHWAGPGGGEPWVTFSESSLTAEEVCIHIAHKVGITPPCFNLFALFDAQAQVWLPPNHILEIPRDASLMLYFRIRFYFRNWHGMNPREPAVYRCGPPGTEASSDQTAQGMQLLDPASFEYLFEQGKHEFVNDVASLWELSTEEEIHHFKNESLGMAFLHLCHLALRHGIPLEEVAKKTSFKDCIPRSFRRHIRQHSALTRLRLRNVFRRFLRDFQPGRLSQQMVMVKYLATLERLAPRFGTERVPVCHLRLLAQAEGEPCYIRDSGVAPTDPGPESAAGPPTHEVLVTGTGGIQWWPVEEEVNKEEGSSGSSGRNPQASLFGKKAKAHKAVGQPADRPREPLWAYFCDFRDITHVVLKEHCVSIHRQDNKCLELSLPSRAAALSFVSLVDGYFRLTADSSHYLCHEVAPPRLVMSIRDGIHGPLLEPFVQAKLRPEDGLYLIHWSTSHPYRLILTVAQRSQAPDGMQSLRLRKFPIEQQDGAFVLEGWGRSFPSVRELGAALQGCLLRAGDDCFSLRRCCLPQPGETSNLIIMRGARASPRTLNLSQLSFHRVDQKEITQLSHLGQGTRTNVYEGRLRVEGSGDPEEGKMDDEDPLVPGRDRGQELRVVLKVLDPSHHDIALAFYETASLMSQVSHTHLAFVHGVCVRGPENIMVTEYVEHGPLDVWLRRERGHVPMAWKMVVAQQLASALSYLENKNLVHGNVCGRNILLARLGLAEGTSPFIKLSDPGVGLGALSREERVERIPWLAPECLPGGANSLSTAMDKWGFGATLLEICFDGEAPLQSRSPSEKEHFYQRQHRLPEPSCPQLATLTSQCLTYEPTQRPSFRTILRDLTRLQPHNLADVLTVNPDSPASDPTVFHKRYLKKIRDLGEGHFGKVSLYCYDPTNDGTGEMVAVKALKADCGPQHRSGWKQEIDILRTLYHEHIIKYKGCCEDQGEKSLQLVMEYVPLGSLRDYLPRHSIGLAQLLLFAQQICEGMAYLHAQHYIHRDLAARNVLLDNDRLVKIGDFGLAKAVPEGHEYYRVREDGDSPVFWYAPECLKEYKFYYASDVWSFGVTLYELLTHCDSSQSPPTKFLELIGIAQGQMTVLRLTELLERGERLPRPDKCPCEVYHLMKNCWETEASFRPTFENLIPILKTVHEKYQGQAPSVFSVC
JH2 domain of human Tyk2, sequence (P29597 575-876): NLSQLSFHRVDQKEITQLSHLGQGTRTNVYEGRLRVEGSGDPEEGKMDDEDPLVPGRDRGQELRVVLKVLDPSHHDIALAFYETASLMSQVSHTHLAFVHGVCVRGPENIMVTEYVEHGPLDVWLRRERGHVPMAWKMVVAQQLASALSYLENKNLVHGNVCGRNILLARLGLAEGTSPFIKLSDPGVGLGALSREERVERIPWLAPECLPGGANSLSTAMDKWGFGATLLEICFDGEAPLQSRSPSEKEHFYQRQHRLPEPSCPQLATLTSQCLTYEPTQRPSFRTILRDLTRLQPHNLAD

| SMILES | IC50 (JH2 domain of human Tyk2; [1]) [µM] | IC50 (Tyk2; MSD) [µM] | IC50 (JH2 domain of human Tyk2; [2]) [µM] | IC50 (JH2 domain of human Tyk2; [3]) [µM] | IC50 (Tyk2) [µM] |
| --- | --- | --- | --- | --- | --- |
| CCOc1cnc(NC(C)=O)cc1Nc1cc(OC2CC(F)(F)C2)nc(C(C)(F)F)n1 [Example 459, N-(4-((6-(3,3-difluorocyclobutoxy)-2-(1,1-difluoroethyl)pyrimidin-4-yl)amino)-5-ethoxypyridin-2-yl)acetamide] | ≤ 0.01 | 0.01 to 0.1 |  |  |  |
| CC(=O)Nc1cc(Nc2cc(C)nc(C(C)(F)F)n2)c(-c2ccc3c(n2)CCC3=O)cn1 [Example 677, N-(4-((2-(1,1-difluoroethyl)-6-methylpyrimidin-4-yl)amino)-5-(5-oxO6,7-dihydrO5H-cyclopenta[b]pyridin-2-yl)pyridin-2-yl)acetamide] | ≤ 0.01 | ≤ 0.01 |  |  |  |
| CC(=O)Nc1cc(Nc2cc(C)nc(C(C)(F)F)n2)c([C@H]2CCCO2)cn1 (single isomer, unassigned) [Example 278, (R)-N-(4-((2-(1,1-difluoroethyl)-6-methylpyrimidin-4-yl)amino)-5-(tetrahydrofuran-2-yl)pyridin-2-yl)acetamide or (S)—N-(4-((2-(1,1-difluoroethyl)-6-methylpyrimidin-4-yl)amino)-5-(tetrahydrofuran-2-yl)pyridin-2-yl)acetamide] |  | ≥ 1 | 0.01 to 0.1 |  |  |
| CC(=O)Nc1cc(Nc2cc(C)nc(C(C)(F)F)n2)c(OC[C@H]2C[C@H]2CF)cn1 (racemic) [Example 428, Cis-rac-N-(4-((2-(1,1-difluoroethyl)-6-methylpyrimidin-4-yl)amino)-5-((2-(fluoromethyl)cyclopropyl)methoxy)pyridin-2-yl)acetamide] | ≤ 0.01 | 0.01 to 0.1 |  |  |  |
| CC(=O)Nc1cc(Nc2ccnc(C(C)(F)F)n2)c(-c2cnc(C#N)cn2)cn1 [Example 850, N-(5-(5-cyanopyrazin-2-yl)-4-((2-(1,1-difluoroethyl)pyrimidin-4-yl)amino)pyridin-2-yl)acetamide] |  |  |  | ≤ 0.01 | 0.1 to 1 |
| COCCOc1cnc(NC(C)=O)cc1Nc1cc(C)nc(C(F)CF)n1 (centres unmarked) [Example 79, N-(4-((2-(1,2-difluoroethyl)-6-methylpyrimidin-4-yl)amino)-5-(2-methoxyethoxy)pyridin-2-yl)acetamide] |  | 0.01 to 0.1 | ≤ 0.01 |  |  |
| CC(=O)Nc1cc(Nc2cc(C)nc(C(C)(F)F)n2)c(OCc2scnc2C)cn1 [Example 334, N-(4-((2-(1,1-difluoroethyl)-6-methylpyrimidin-4-yl)amino)-5-((4-methylthiazol-5-yl)methoxy)pyridin-2-yl)acetamide] |  | 0.1 to 1 | 0.01 to 0.1 |  |  |
| CC(=O)Nc1cc(Nc2cc(C)nc(C(C)(F)F)n2)c(OCc2ccc(C#N)o2)cn1 [Example 333, N-(5-((5-cyanofuran-2-yl)methoxy)-4-((2-(1,1-difluoroethyl)-6-methylpyrimidin-4-yl)amino)pyridin-2-yl)acetamide] |  | 0.01 to 0.1 | ≤ 0.01 |  |  |
| CCOc1cnc(NC(C)=O)cc1Nc1cc(OC2CC(C#N)C2)nc(C(C)(F)F)n1 (centres unmarked) [Example 463, N-(4-((6-(3-cyanocyclobutoxy)-2-(1,1-difluoroethyl)pyrimidin-4-yl)amino)-5-ethoxypyridin-2-yl)acetamide] | ≤ 0.01 | ≤ 0.01 |  |  |  |
| COc1cnc(NC(C)=O)cc1Nc1cc(-c2cnn(C(F)F)c2)nc(C(C)(F)F)n1 [Example 375, N-(4-((2-(1,1-difluoroethyl)-6-(1-(difluoromethyl)-1H-pyrazol-4-yl)pyrimidin-4-yl)amino)-5-methoxypyridin-2-yl)acetamide] | 0.01 to 0.1 | 0.1 to 1 |  |  |  |
| CC(=O)Nc1cc(Nc2cc(C)nc(C(C)(F)F)n2)c(-c2cc(C(C)(C)O)n(C)n2)cn1 [Example 272, N-(4-((2-(1,1-difluoroethyl)-6-methylpyrimidin-4-yl)amino)-5-(5-(2-hydroxypropan-2-yl)-1-methyl-1H-pyrazol-3-yl)pyridin-2-yl)acetamide] |  | ≤ 0.01 | ≤ 0.01 |  |  |
| COCC(C)Oc1cnc(NC(C)=O)cc1Nc1cc(C)nc(C(C)(F)F)n1 (centres unmarked) [Example 59, N-(4-((2-(1,1-difluoroethyl)-6-methylpyrimidin-4-yl)amino)-5-((1-methoxypropan-2-yl)oxy)pyridin-2-yl)acetamide] |  | 0.1 to 1 | ≤ 0.01 |  |  |
| CC(=O)Nc1cc(Nc2cc(C)nc(C(C)(F)F)n2)c(-c2ccnc(C)n2)cn1 [Example 174, N-(4-((2-(1,1-difluoroethyl)-6-methylpyrimidin-4-yl)amino)-5-(2-methylpyrimidin-4-yl)pyridin-2-yl)acetamide] |  | ≤ 0.01 | ≤ 0.01 |  |  |
| CC(=O)Nc1cc(Nc2cc(C)nc(C(C)(C)F)n2)c(-c2cn3cnnc3cn2)cn1 [Example 532, N-(5-([1,2,4]triazolo[4,3-a]pyrazin-6-yl)-4-((2-(2-fluoropropan-2-yl)-6-methylpyrimidin-4-yl)amino)pyridin-2-yl)acetamide] | ≤ 0.01 | 0.1 to 1 |  |  |  |
| CC(=O)Nc1cc(Nc2cc(C)nc(C(C)(F)F)n2)c(OCc2nccn2C)cn1 [Example 496, N-(4-((2-(1,1-difluoroethyl)-6-methylpyrimidin-4-yl)amino)-5-((1-methyl-1H-imidazol-2-yl)methoxy)pyridin-2-yl)acetamide] | 0.01 to 0.1 | ≥ 1 |  |  |  |
| COCc1ccc(-c2cnc(NC(C)=O)cc2Nc2ccnc(C3CCOC3)n2)nc1 (centres unmarked) [Example 567, N-(5-(methoxymethyl)-4′-((2-(tetrahydrofuran-3-yl)pyrimidin-4-yl)amino)-[2,3′-bipyridin]-6′-yl)acetamide] | ≤ 0.01 | 0.01 to 0.1 |  |  |  |
| CC(=O)Nc1cc(Nc2cc(C)nc(C(C)(F)F)n2)c(-c2ncc(CN3CCCC3)s2)cn1 [Example 738, N-(4-((2-(1,1-difluoroethyl)-6-methylpyrimidin-4-yl)amino)-5-(5-(pyrrolidin-1-ylmethyl)thiazol-2-yl)pyridin-2-yl)acetamide] | ≤ 0.01 | ≤ 0.01 |  |  |  |
| CC(=O)Nc1cc(Nc2ccnc(C(C)(F)F)n2)c(-c2ccc(N3C[C@@H]4C[C@H]3CO4)nn2)cn1 [Example 876, N-(5-(6-((1S,4S)-2-oxa-5-azabicyclo[2.2.1]heptan-5-yl)pyridazin-3-yl)-4-((2-(1,1-difluoroethyl)pyrimidin-4-yl)amino)pyridin-2-yl)acetamide] |  |  |  | ≤ 0.01 | ≤ 0.01 |
| CC(=O)Nc1cc(Nc2cc(C)nc(C(C)(F)F)n2)c(OCc2ccccc2)cn1 [Example 30, N-(5-(benzyloxy)-4-((2-(1,1-difluoroethyl)-6-methylpyrimidin-4-yl)amino)pyridin-2-yl)acetamide] |  | ≤ 0.01 | ≤ 0.01 |  |  |
| COCCOc1cnc(NC(C)=O)cc1Nc1cc(C)cc(C(C)(F)F)n1 [Example 63, N-(4-((6-(1,1-difluoroethyl)-4-methylpyridin-2-yl)amino)-5-(2-methoxyethoxy)pyridin-2-y1)acetamide] |  | ≤ 0.01 | ≤ 0.01 |  |  |
| CC(=O)Nc1cc(Nc2cc(C(C)C)nc(C(C)(F)F)n2)c(F)cn1 [Example 817, N-(4-((2-(1,1-difluoroethyl)-6-isopropylpyrimidin-4-yl)amino)-5-fluoropyridin-2-yl)acetamide] |  |  |  | 0.01 to 0.1 | ≥ 1 |
| CC(=O)Nc1cc(Nc2ccnc(C(C)(F)F)n2)c(-c2ccc(COC(F)F)cn2)cn1 [Example 265, N-(4′-((2-(1,1-difluoroethyl)pyrimidin-4-yl)amino)-5-((difluoromethoxy)methyl)-[2,3′-bipyridin]-6′-yl)acetamide] |  | ≤ 0.01 | ≤ 0.01 |  |  |
